Reference: patent US20230278972A1, “SUBSTITUTED HALOALKYL SULFONANILIDE HERBICIDES” (FMC Corporation, priority 2020, published 2023)

What was measured:
Assay type in all cases: in vivo
[1] = system: blackgrass (Alopecurus myosuroides); test: Test A1 preemergence, blackgrass
In short: (§1)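 Plants grown in pots of loam/sand mix; preemergence = soil-directed spray on seeded pots, postemergence = spray at 1–2 leaves, height 2–10 cm; test chemicals formulated in non-phytotoxic solvent with surfactant.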

[2] = system: corn (Zea mays); test: Test A1 preemergence, corn
In short: (§2)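 Test compounds were formulated in a non-phytotoxic solvent mixture containing a surfactant. For preemergence, seeds sown in a loam soil–sand blend received a directed soil spray. For postemergence, potted plants in the same soil, 2 to 10 cm tall at the one- to two-leaf stage, were sprayed.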

[3] = system: Foxtail, Giant (giant foxtail, Setaria faberi); test: Test A1 preemergence, Foxtail, Giant
In short: as §1

[4] = system: goosegrass (Eleusine indica); test: Test A1 preemergence, goosegrass
In short: as §1

[5] = system: kochia (Bassia scoparia); test: Test A1 preemergence, kochia
In short: as §1

[6] = system: Oat, Wild (wild oat, Avena fatua); test: Test A1 preemergence, Oat, Wild
In short: as §1

[7] = system: Pigweed, Palmer (palmer amaranth, palmer pigweed, Amaranthus palmeri); test: Test A1 preemergence, Pigweed, Palmer
In short: as §1

[8] = system: ragweed (common ragweed, Ambrosia artemisiifolia); test: Test A1 preemergence, ragweed
In short: as §1

[9] = system: Ryegrass, Italian (Italian ryegrass, Lolium multiflorum); test: Test A1 preemergence, Ryegrass, Italian
In short: as §1

[10] = system: soybean (Glycine max); test: Test A1 preemergence, soybean
In short: as §1

[11] = system: wheat (Triticum aestivum); test: Test A1 preemergence, wheat
In short: as §1

[12] = system: blackgrass (Alopecurus myosuroides); test: Test A1 postemergence, blackgrass; conditions: Postemergence, 0 to 100 scale (0 no effect, 100 complete control)
In short: (§3)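 Herbicidal response was scored on plants treated either preemergence, by directed spray onto soil of a loam–sand blend after sowing, or postemergence on potted plants at the one- to two-leaf stage, 2–10 cm high. Test chemicals were carried in a non-phytotoxic solvent mix with surfactant.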

[13] = system: corn (Zea mays); test: Test A1 postemergence, corn; conditions: Postemergence
In short: as §1

[14] = system: Foxtail, Giant (giant foxtail, Setaria faberi); test: Test A1 postemergence, Foxtail, Giant; conditions: Postemergence
In short: as §3

[15] = system: goosegrass (Eleusine indica); test: Test A1 postemergence, goosegrass; conditions: Postemergence
In short: as §3

[16] = system: kochia (Bassia scoparia); test: Test A1 postemergence, kochia; conditions: Postemergence
In short: as §3

[17] = system: Oat, Wild (wild oat, Avena fatua); test: Test A1 postemergence, Oat, Wild; conditions: Postemergence
In short: as §2

[18] = system: Pigweed, Palmer (palmer amaranth, palmer pigweed, Amaranthus palmeri); test: Test A1 postemergence, Pigweed, Palmer; conditions: Postemergence
In short: as §2

[19] = system: ragweed (common ragweed, Ambrosia artemisiifolia); test: Test A1 postemergence, ragweed; conditions: Postemergence
In short: as §2

[20] = system: Ryegrass, Italian (Italian ryegrass, Lolium multiflorum); test: Test A1 postemergence, Ryegrass, Italian; conditions: Postemergence
In short: as §3

[21] = system: soybean (Glycine max); test: Test A1 postemergence, soybean; conditions: Postemergence
In short: as §3

[22] = system: wheat (Triticum aestivum); test: Test A1 postemergence, wheat; conditions: Postemergence
In short: as §3

[23] = system: galium (catchweed bedstraw, Galium aparine); test: Test A1 postemergence, galium; conditions: Postemergence
In short: as §3

[24] = system: horseweed (Erigeron canadensis); test: Test A1 postemergence, horseweed; conditions: Postemergence
Excerpt: Seeds of plant species selected from, blackgrass (Alopecurus myosuroides), corn (Zea mays), Foxtail, Giant (giant foxtail, Setaria faberi), goosegrass (Eleusine indica), kochia (Bassia scoparia), Oat, Wild (wild oat, Avena fatua), Pigweed, Palmer (palmer amaranth, palmer pigweed, Amaranthus palmeri), ragweed (common ragweed, Ambrosia artemisiifolia), Ryegrass, Italian (Italian ryegrass, Lolium multiflorum), soybean (Glycine max), and wheat (Triticum aestivum) were planted into a blend of loam soil and sand and treated preemergence with a directed soil spray using test chemicals formulated in a non-phytotoxic solvent mixture which included a surfactant. At the same time, plants selected from these crop and weed species and also galium (catchweed bedstraw, Galium aparine) and horseweed (Erigeron canadensis) were planted in pots containing the same blend of loam soil and sand and treated with postemergence applications of test chemicals formulated in the same manner. Plants ranged in height from 2 to 10 cm and were in the one- to two-leaf stage for the postemergence treatment. […] A dash (-) response means no test result.

[25] = system: barnyardgrass (Echinochloa crus-galli); test: Test B1 flooded paddy test, barnyardgrass; conditions: 250 g ai/ha, Flood, applied to paddy water, 2-leaf stage, visually evaluated after 10 to 14 days
Excerpt: (§4) A dash (-) response means no test result.

[26] = system: ducksalad (Heteranthera limosa); test: Test B1 flooded paddy test, ducksalad; conditions: 250 g ai/ha, Flood, applied to paddy water, 2-leaf stage, visually evaluated after 10 to 14 days
Excerpt: as §4

[27] = system: rice (Oryza sativa); test: Test B1 flooded paddy test, rice; conditions: 250 g ai/ha, Flood, applied to paddy water, 2-leaf stage, visually evaluated after 10 to 14 days
Excerpt: as §4

[28] = 31 g ai/ha, 0 to 100 scale (0 no effect, 100 complete control)
[29] = 125 g ai/ha, 0 to 100 scale, 0 no effect, 100 complete control
[30] = 31 g ai/ha, 0 to 100 scale (0 no effect, 100 complete control), 10 days

COc1cnn(-c2cc(NS(=O)(=O)C(F)(F)F)c(C)cc2C)c(=O)c1OC [Compound 282]
Plant response rating, Blackgrass [1, 28]: 30
Plant response rating, Blackgrass [1, 29]: 60
Plant response rating, Corn [2, 28]: 0
Plant response rating, Corn [2, 29]: 50
Plant response rating, Foxtail, Giant [3, 28]: 0
Plant response rating, Foxtail, Giant [3, 29]: 30
Plant response rating, Goosegrass [4, 28]: 0
Plant response rating, Goosegrass [4, 29]: 90
Plant response rating, Kochia [5, 28]: 0
Plant response rating, Kochia [5, 29]: 80
Plant response rating, Oat, Wild [6, 28]: 20
Plant response rating, Oat, Wild [6, 29]: 30
Plant response rating, Pigweed, Palmer [7, 28]: 0
Plant response rating, Pigweed, Palmer [7, 29]: 80
Plant response rating, Ragweed [8, 28]: 0
Plant response rating, Ragweed [8, 29]: 20
Plant response rating, Ryegrass, Italian [9, 28]: 0
Plant response rating, Ryegrass, Italian [9, 29]: 40
Plant response rating, Soybean [10, 28]: 20
Plant response rating, Soybean [10, 29]: 20
Plant response rating, Wheat [11, 28]: 0
Plant response rating, Wheat [11, 29]: 80
Plant response rating, Blackgrass ([12]; 31 g ai/ha, 10 days): 0
Plant response rating, Blackgrass ([12]; 125 g ai/ha): 20
Plant response rating, Corn [13, 30]: 0
Plant response rating, Corn ([13]; 125 g ai/ha, 0 to 100 scale): 80
Plant response rating, Foxtail, Giant [14, 30]: 0
Plant response rating, Foxtail, Giant ([14]; 125 g ai/ha, 0 to 100 scale): 20
Plant response rating, Goosegrass [15, 30]: 20
Plant response rating, Goosegrass ([15]; 125 g ai/ha, 0 to 100 scale): 80
Plant response rating, Kochia [16, 30]: 10
Plant response rating, Kochia ([16]; 125 g ai/ha, 0 to 100 scale): 30
Plant response rating, Oat, Wild [17, 30]: 0
Plant response rating, Oat, Wild ([17]; 125 g ai/ha, 0 to 100 scale): 50
Plant response rating, Pigweed, Palmer [18, 30]: 0
Plant response rating, Pigweed, Palmer ([18]; 125 g ai/ha, 0 to 100 scale): 0
Plant response rating, Ragweed [19, 30]: 60
Plant response rating, Ragweed ([19]; 125 g ai/ha, 0 to 100 scale): 70
Plant response rating, Ryegrass, Italian [20, 30]: 30
Plant response rating, Ryegrass, Italian ([20]; 125 g ai/ha, 0 to 100 scale): 60
Plant response rating, Soybean [21, 30]: 40
Plant response rating, Soybean ([21]; 125 g ai/ha, 0 to 100 scale): 60
Plant response rating, Wheat [22, 30]: 60
Plant response rating, Wheat ([22]; 125 g ai/ha, 0 to 100 scale): 80
Plant response rating, Galium ([23]; 125 g ai/ha, 0 to 100 scale): 0
Plant response rating, Horseweed [24, 30]: 50
Plant response rating, Horseweed ([24]; 125 g ai/ha, 0 to 100 scale): 80
Plant response rating, Barnyardgrass (0 to 100 scale, 0 is no effect, 100 is complete control) [25]: 0
Plant response rating, Ducksalad (0 to 100 scale, 0 is no effect, 100 is complete control) [26]: 65
Plant response rating, Rice (0 to 100 scale, 0 is no effect, 100 is complete control) [27]: 0

Cc1c(NS(=O)(=O)C(F)(F)F)cc(C(=O)N2CCOCC2)c(C)c1Cl [Compound 290]
Plant response rating, Blackgrass [1, 28]: 20
Plant response rating, Blackgrass [1, 29]: 70
Plant response rating, Corn [2, 28]: 0
Plant response rating, Corn [2, 29]: 20
Plant response rating, Foxtail, Giant [3, 28]: 0
Plant response rating, Foxtail, Giant [3, 29]: 90
Plant response rating, Goosegrass [4, 28]: 70
Plant response rating, Goosegrass [4, 29]: 90
Plant response rating, Kochia [5, 28]: 20
Plant response rating, Kochia [5, 29]: 30
Plant response rating, Oat, Wild [6, 28]: 0
Plant response rating, Oat, Wild [6, 29]: 20
Plant response rating, Pigweed, Palmer [7, 28]: 0
Plant response rating, Pigweed, Palmer [7, 29]: 50
Plant response rating, Ragweed [8, 28]: 20
Plant response rating, Ragweed [8, 29]: 60
Plant response rating, Ryegrass, Italian [9, 28]: 30
Plant response rating, Ryegrass, Italian [9, 29]: 60
Plant response rating, Soybean [10, 28]: 0
Plant response rating, Soybean [10, 29]: 0
Plant response rating, Wheat [11, 28]: 0
Plant response rating, Wheat [11, 29]: 40
Plant response rating, Blackgrass ([12]; 31 g ai/ha, 10 days): 0
Plant response rating, Blackgrass ([12]; 125 g ai/ha): 0
Plant response rating, Corn [13, 30]: 0
Plant response rating, Corn ([13]; 125 g ai/ha, 0 to 100 scale): 20
Plant response rating, Foxtail, Giant [14, 30]: 0
Plant response rating, Foxtail, Giant ([14]; 125 g ai/ha, 0 to 100 scale): 70
Plant response rating, Goosegrass [15, 30]: 30
Plant response rating, Goosegrass ([15]; 125 g ai/ha, 0 to 100 scale): 70
Plant response rating, Kochia [16, 30]: 20
Plant response rating, Kochia ([16]; 125 g ai/ha, 0 to 100 scale): 20
Plant response rating, Oat, Wild [17, 30]: 0
Plant response rating, Oat, Wild ([17]; 125 g ai/ha, 0 to 100 scale): 10
Plant response rating, Pigweed, Palmer [18, 30]: 0
Plant response rating, Pigweed, Palmer ([18]; 125 g ai/ha, 0 to 100 scale): 20
Plant response rating, Ragweed [19, 30]: 60
Plant response rating, Ragweed ([19]; 125 g ai/ha, 0 to 100 scale): 70
Plant response rating, Ryegrass, Italian [20, 30]: 0
Plant response rating, Ryegrass, Italian ([20]; 125 g ai/ha, 0 to 100 scale): 50
Plant response rating, Soybean [21, 30]: 0
Plant response rating, Soybean ([21]; 125 g ai/ha, 0 to 100 scale): 20
Plant response rating, Wheat [22, 30]: 0
Plant response rating, Wheat ([22]; 125 g ai/ha, 0 to 100 scale): 60
Plant response rating, Galium [23, 30]: 80
Plant response rating, Galium ([23]; 125 g ai/ha, 0 to 100 scale): 90
Plant response rating, Horseweed [24, 30]: 70
Plant response rating, Horseweed ([24]; 125 g ai/ha, 0 to 100 scale): 90
Plant response rating, Barnyardgrass (0 to 100 scale, 0 is no effect, 100 is complete control) [25]: 0
Plant response rating, Ducksalad (0 to 100 scale, 0 is no effect, 100 is complete control) [26]: 65
Plant response rating, Rice (0 to 100 scale, 0 is no effect, 100 is complete control) [27]: 0
